Marks after values point to notes of the source that are not given here.
Experiments:
[1] = system: vitelline capillaries of 3- to 5-day chick embryo; assay: Chick embryo vitelline capillary regression assay; assay type: in vivo; set-up: key to Vascular reactivity (capillary regression): + = Vascular reactivity; 0 = No vascular reactivity; +/− = Equivocal reactivity; settings: for Vascular reactivity (capillary regression): 60 minutes
Procedure, shortened: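 Compounds were applied onto the 3- to 5-day embryo in 0.1 ml 15% Ficol 400 in PBS. Vascular regression was assessed visually after 60 min, scoring capillary constriction and pinching-off into enclosed blood-island-like sacs.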

[2] = system: Stage 59-60 Xenopus tadpoles; assay: Xenopus tadpole assay; assay type: in vivo, Xenopus laevis; settings: 10 μg/ml in water; for Pharmacological response observed in tadpole: about 1 hour
Procedure, shortened: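 Stage 59-60 Xenopus laevis tadpoles placed in compound dissolved in distilled water at 10 μg/ml, allowing oral uptake and systemic exposure. After 1 hour, capillary blood-flow occlusion in the tail was scored by inverted microscopy (~100×) plus gross observation.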

B16 melanoma = assay: Growth of B16 melanoma in C57B mice; assay type: in vivo
Procedure: The growth of B16 melanoma in C57B mice is dependent upon neovascularization.
Using the growth of B16 melanoma cells in C57B mice, a recognized model for the evaluation of inhibitors of angiogenesis on the growth of cancers, the effects of subcutaneous, intraperitoneal and oral administration of squalamine were evaluated.
Animals were implanted with B16 melanoma followed by treatment with compound 1436 or 1256 administered in a combined schedule or separately. […] Thus, a combination of these two compounds achieves a therapeutic benefit in tumors dependent on neovascularization that may prevent metastatic spread.

[3] = system: PHA-stimulated human lymphocytes; assay: Inhibition of mitogen-stimulated growth of human T-cells; assay type: cell-based; settings: 72 hours
Procedure: Human heparinized blood, freshly collected, was introduced into tissue culture flasks containing 10 μg/ml phytohaemagglutinin (PHA) in RPMI medium with 10% FCS. Various purified steroids were introduced subsequently at concentrations of 1, 5, and 10 μg/ml. Cultures were incubated for 72 hours, after which time colcemid was added to 1 μg/ml. Cultures were maintained for an additional 2 hours, and cells collected. Mitotic figures were estimated using standard cytochemical techniques, following Giemsa staining.

[4] = Fasting blood glucose in mice; assay type: in vivo; settings: for Fasting Blood Glucose Mean + SEM: male CD-1 mice, 2 × 10 mg/kg i.v. (total 20 mg/kg), overnight fast, blood 30 min. after 2d dose, 1437 and 1256 in H2O, 1436 in D5W
Procedure: To study the effect of steroid administrator or the NHE responsible for secretion of insulin, several of the aminosterols from shark liver were administered to fasting mice. Male CD-1 mice were assigned to one of four treatment groups. Whole blood glucose was tested using glucometer (Lifescan Glucometer II and One Touch test strips). Statistical analysis was via one-way analysis of variance (ANOVA) followed by subsequent Bonferonni's t-test.

[5] = system: PHA-stimulated human lymphocytes; assay: Inhibition of mitogen-stimulated growth of human T-cells; assay type: cell-based; settings: Lymphocyte, 10 μg/ml, read-out: Inhibition of blast transformation
[6] = system: chorioallantoic membrane capillaries; assay: Chorioallantoic membrane (CAM) model of capillary growth; assay type: in vivo, chick; settings: for Percentage positive, Assay 1 / Percentage positive, Assay 2 / Percentage positive, Mean: 3-day embryo
From the text: The growing capillaries within the chorioallantoic membrane model (CAM model) have been used as a system in which to evaluate the effect of agents on their potential to inhibit new vessel growth. Neovascularization occurs most aggressively over the first week of embryonic development. Thereafter capillary growth is characterized by principally “elongation” rather than “de novo” formation. In the standard assay, agents are applied locally to a region of the embryo over which neovascularization will occur. Agents are assessed by their ability to inhibit this process, as evaluated by visual examination about 7 days after application. […] The assay utilized is described in detail in Auerbach et al., Pharm. Ther. 51, 1991, 1-11.

Murine B16 melanoma = assay: In vitro cell growth inhibition (assay of Baker et al.); assay type: cell-based; settings: except at very high concentrations
From the text: As set forth in Table 7 below, all malignant tumors evaluated in tissue culture, endothelial cells and vascular smooth muscle cells were sensitive to inhibition. Thus, compound 1436 has application in the control of growth factor dependent proliferation of many types of tissue.

[7] = 20 μg applied, some vascular irritation noted
[8] = 40 μg applied, some vascular irritation noted

SMILES: CC(CC[C@@H](OS(=O)(=O)O)C(C)C)[C@H]1CCC2C3C(CC[C@@]21C)[C@@]1(C)CC[C@H](NCCCNCCCCNCCCN)C[C@@H]1C[C@H]3O (some centres unmarked) [Compound 1436]
- Vascular reactivity (capillary regression) ([1]; 0.001 μg applied): +/−
- Vascular reactivity (capillary regression) ([1]; 0.01 μg applied): +
- Vascular reactivity (capillary regression) ([1]; 0.1 μg applied): +
- Vascular reactivity (capillary regression) ([1]; 1 μg applied): +
- Vascular reactivity (capillary regression) ([1]; 10 μg applied): +
- Effect on chick embryo capillary bed ([1]; in vivo): causes vitelline capillary regression with about the same potency as squalamine
- Pharmacological category in tadpole assay (similarity to a reference steroid) [2]: common vascular occlusive effect
- Time to death of tadpole [2]: about 2 hours
- Pharmacological response observed in tadpole [2]: Gradual reduction in overall activity. Heart beat remained strong, suggesting nervous system depression. Melanocytes over head and tail began to swell, first exhibiting visibly distinct nuclei, followed by rupture into fragments
- Pharmacological response observed in tadpole ([2]; listed as compound 1436): dramatic disruption of melanocytes over its head, trunk, and tail, along with depression of its nervous system
- Impact on tumor volume (B16 melanoma; compound 1436 10 mg/kg/every 3 days alone): no significant impact on tumor volume
- Inhibition of PHA-stimulated human lymphocytes ([3]; 1 μg/ml): 20 % control
- Inhibition of PHA-stimulated human lymphocytes ([3]; 5 μg/ml): 50 % control
- Inhibition of PHA-stimulated human lymphocytes ([3]; 10 μg/ml): 80 % control
- Effect on blood glucose ([4]; intravenous, 1436 in D5W (5% glucose), 1437 in water): caused hyperglycemia in mice
- Fasting Blood Glucose Mean + SEM [4]: 105 ± 8.0 mg/dL
- inhibition at 10 µg/mL [5]: > 75%

SMILES: CC(CC[C@@H](OS(=O)(=O)O)C(C)C)[C@H]1CCC2C3C(CC[C@@]21C)[C@@]1(C)CC[C@H](NCCCNCCCCN)C[C@@H]1C[C@H]3O (some centres unmarked) [squalamine]
- Percentage positive, Assay 1 ([6]; 0.65 μg applied): 28%
- Percentage positive, Assay 1 ([6]; 1.25 μg applied): 18%
- Percentage positive, Assay 2 ([6]; 1.25 μg applied): 18%
- Percentage positive, Mean ([6]; 1.25 μg applied): 18%
- Percentage positive, Assay 1 ([6]; 2.5 μg applied): 35%
- Percentage positive, Assay 2 ([6]; 2.5 μg applied): 18%
- Percentage positive, Mean ([6]; 2.5 μg applied): 27%
- Percentage positive, Assay 1 ([6]; 5.0 μg applied): 91%
- Percentage positive, Assay 2 ([6]; 5.0 μg applied): 57%
- Percentage positive, Mean ([6]; 5.0 μg applied): 74%
- Percentage positive, Mean ([6]; 20 μg applied): 55%
- Percentage positive, Assay 1 [6, 7]: 52* %
- Percentage positive, Assay 2 [6, 7]: 58* %
- Percentage positive, Mean ([6]; 40 μg applied): 32%
- Percentage positive, Assay 1 [6, 8]: 50* %
- Percentage positive, Assay 2 [6, 8]: 13* %
- Percentage positive ([6]; 13-day embryo, 5.0 μg applied): 0/26
- Vascular reactivity (capillary regression) ([1]; 0.001 μg applied): 0
- Vascular reactivity (capillary regression) ([1]; 0.01 μg applied): +
- Vascular reactivity (capillary regression) ([1]; 0.1 μg applied): +
- Vascular reactivity (capillary regression) ([1]; 1 μg applied): +
- Vascular reactivity (capillary regression) ([1]; 10 μg applied): +
- Pharmacological category in tadpole assay (similarity to a reference steroid) [2]: common vascular occlusive effect
- Time to death of tadpole [2]: ≤ 2 h
- Pharmacological response observed in tadpole [2]: blood flow through the capillaries of the tail shut down
- Pharmacological response observed in tadpole ([2]; listed as Compound 1256): Vascular occlusion in fine capillaries of tail
- Body weight and hematologic parameters (B16 melanoma; during squalamine treatment): no significant depression
- Impact on tumor volume (B16 melanoma; squalamine 5 mg/kg/day alone): no significant impact on tumor volume
- Suppression of tumor volume (B16 melanoma; squalamine intraperitoneally): dose-dependent suppression of tumor volume
- Suppression of tumor volume (B16 melanoma; squalamine orally): dose-dependent suppression of tumor volume
- Suppression of tumor volume (B16 melanoma; squalamine subcutaneously): dose-dependent suppression of tumor volume
- Inhibition of PHA-stimulated human lymphocytes ([3]; 1 μg/ml): 3 % control
- Inhibition of PHA-stimulated human lymphocytes ([3]; 5 μg/ml): 8 % control
- Inhibition of PHA-stimulated human lymphocytes ([3]; 10 μg/ml): 10 % control
- Cytostatic activity against B16 in culture (Murine B16 melanoma): minimal cytostatic activity
- Fasting Blood Glucose Mean + SEM [4]: 65 ± 7.3 mg/dL
